Reference: patent US20250082598A1, “Melafenoxate, 2-(1-adamantylamino)ethyl 2-(4-chlorophenoxy)acetate and derivatives thereof for treating circadian rhythm sleep disorders with neurodegenerative diseases such as Alzheimer's disease” (NLS Pharmaceutics AG, priority 2021, published 2025)

System: C57BL/6J mice
Test: Scopolamine-induced amnesia in the novel object recognition (NOR) test
Format: in vivo
Details: scopolamine 1.2 mg/kg i.p. alone
Description: The scopolamine-induced amnesia in the novel object recognition (NOR) test in mice is a recognized in vivo model of Alzheimer Disease (AD).
The aim of this study is to examine whether Melafenoxate (NLS-8) improves amnesia induced by scopolamine in the NOR test.
Experiments were carried out on C57BL/6J mice.
In a first step of the experiment, NLS-8 was tested at 25, 50 and 100 mg/kg.
Animals were divided into 6 groups (N=4-10/group).
At T=0 min, they received the following treatments by intraperitoneal (i.p.) route: • Control group: vehicle. • Scopolamine group: scopolamine (1.2 mg/kg). • NLS-8 25 group: NLS-8 (25 mg/kg)+scopolamine (1.2 mg/kg). • NLS-8 50 group: NLS-8 (50 mg/kg)+scopolamine (1.2 mg/kg). • NLS-8 100 group: NLS-8 (100 mg/kg)+scopolamine (1.2 mg/kg). • NLS-8 150 group: NLS-8 (150 mg/kg)+scopolamine (1.2 mg/kg).
At T=30 min following treatment, animals were subjected to a sample trial. They were placed for a 12-min session in a circular experimental box in which two identical objects were presented (50% of animals: two brown cylindrical vials; 50% of animals: two black rectangular columns). At t=120 min following treatments, mice were subjected to a choice trial. They were placed again for a 12-min session in the same experimental box in which two different objects (a vial and a column) were presented: one of the objects (termed as familiar object) presented in the sample trial and a novel object. Exploration of the objects was recorded by an experimenter blind to treatment and unaware of which object was the novel one and which object was the familiar one.
DI(discrimination index)=100 ×(exploration time of the novel object−exploration time of the familiar object)/(exploration time of the novel object+exploration time of the familiar object). • Index of exploration: N+F=exploration time of the novel object+exploration time of the familiar object.
• Within group comparisons: DI vs. 0 (paired Student's t test). • Between group comparisons vs. the Control group and vs. the Scopo group: unpaired Student's t test.

SMILES: CN1[C@@H]2C[C@@H](OC(=O)[C@H](CO)c3ccccc3)C[C@H]1[C@@H]1O[C@@H]12 [Scopo, scopolamine, reference compound]
- discrimination index vs. 0 (within group): Not significantly different from 0
- discrimination index vs. Control group: Significantly lower
